According to BindingDB's records for doi:10.1021/jm00063a011 (Kyowa Hakko Kogyo, 1993):

Experiments:
[1] = molecular target: Thromboxane-A synthase (Bos taurus); test: Activity against TXA2 synthase in bovine platelet microsome
[2] = as above

| Structure (SMILES) | IC50 [1] | IC50 [2] |
| --- | --- | --- |
| O=C(O)c1ccc2c(c1)C(SCc1cccnc1)c1ccccc1CO2 (stereo not drawn) [11-(Pyridin-3-ylmethylsulfanyl)-6,11-dihydro-dibenzo[b,e]oxepine-2-carboxylic acid] | 4 nM | 400 nM |
| C/C(=C\c1ccc(Cc2cccnc2)cc1)C(=O)O [Sodium; (E)-2-methyl-3-(4-pyridin-3-ylmethyl-phenyl)-acrylate] | 4.3 nM |  |
